# In patent publication US12060588B2, “Methods of editing DNA methylation” (Whitehead Institute for Biomedical Research, priority 2016, dated 2024):
# Tested on: Snrpn promoter (IG-DMR GFP/Pat reporter), neurons
# Experiment: In vivo activation of the IG-DMR GFP/Pat reporter in mouse brain (stereotaxic lentiviral delivery)
# Excerpt: FIGS. 7A-7H depict targeted ex vivo and in vivo DNA methylation editing by dCas9-Tet1 to activate a silenced GFP reporter. FIG. 7A provides a schematic diagram illustrating the experimental procedure for the ex vivo activation of a silenced GFP reporter in mouse fibroblast cells. Mouse tail fibroblast cells were derived from a genetically modified mouse line carrying a paternal IG-DMR-Snrpn-GFP allele (IG-DMRGFP/Pat) in the Dlk1-Dio3 locus. The IG-DMR-Snrpn promoter on the paternal allele is hypermethylated so that the GFP reporter is constitutively silenced. […] Brains were sliced and analyzed by immunohistochemical approaches. […] FIGS. 7G-7H provide quantification of the percentage of IG-DMR^GFP/Pat cells with GFP activation in Cherry (gRNAs) positive cells in the in vivo lentiviral delivery experiment in the brain (FIG. 7G) and in the skin epidemis (FIG. 7H). […]
# To investigate whether the DNA methylation status can be modified in vivo, we infected 3 epidermal sites on the ventral side of an IG-DMR^GFP/Pat transgenic mouse with the dCas9-Tet1 and Snrpn gRNAs (FIG. 14D). […] In addition we infected the brain of an IG-DMR^GFP/Pat transgenic mouse with lentiviral vectors using a stereotaxic setup and analyzed the effect on targeted DNA methylation in brain slices by confocal microscopy. […]
Substance,"GFP reporter activation efficiency in Cherry positive cells (neurons) of the brain in vivo (with Snrpn gRNAs, stereotaxic lentiviral injection, 3 days)",GFP reporter activation in Cherry positive cells of the brain in vivo (with a scrambled gRNA)
"dC-dT: dCas9 fused to an inactive mutant form of Tet1 (H1672Y, D1674A), SEQ ID NO: 160",did not activate GFP reporter expression,–
"dCas9-Tet1: catalytically inactive Cas9 (dCas9) fused through NLS to the Tet1 catalytic domain, SEQ ID NO: 159; lentivirally expressed with gRNAs",–,did not activate GFP reporter expression
